ChEMBL document CHEMBL1201862, “PubChem BioAssay data set” (2004)
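Values below derive from 48-hour exposures of cells grown in 96-well plates, with endpoints linearly interpolated between the two concentrations bracketing the appropriate inhibition level. Here, GI50 denotes the concentration required for 50% inhibition of growth.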 Calls of active or inactive are those of the source. Cut-off read from the data, not from the text of the source: active = GI50 up to about 1.1 µM and inactive = higher.

Key:
Test in all cases: NCI-60 cell line screen, 48 h
[1] = system: UO-31
[2] = system: SK-MEL-28
[3] = system: SF-295
[4] = system: HCC 2998
[5] = system: OVCAR-4
[6] = system: HT-29
[7] = system: NCI-H522
[8] = system: SF-268
[9] = system: ACHN
[10] = system: UACC-257
[11] = system: SK-MEL-5
[12] = system: SN12C
[13] = system: SW-620
[14] = system: OVCAR-5
[15] = system: CAKI-1
[16] = system: OVCAR-3
[17] = system: HOP-62
[18] = system: MOLT-4
[19] = system: SNB-75
[20] = system: A549

Row | Structure (SMILES) | GI50 [1] | GI50 [2] | GI50 [3] | GI50 [4] | GI50 [5] | GI50 [6] | GI50 [7] | GI50 [8] | GI50 [9] | GI50 [10] | GI50 [11] | GI50 [12] | GI50 [13] | GI50 [14] | GI50 [15] | GI50 [16] | GI50 [17] | GI50 [18] | GI50 [19] | GI50 [20]
1 | CN1C(=O)CN2C(Cl)(Cl)C2(c2ccccc2)c2cc(Cl)ccc21 (centres undefined) | > 100 µM (inactive) | > 100 µM (inactive) | 27 µM (inactive) | 65.3 µM (inactive) | > 100 µM (inactive) | 67.5 µM (inactive) | 31.3 µM (inactive) | > 100 µM (inactive) | > 100 µM (inactive) | 55.1 µM (inactive) | > 100 µM (inactive) | > 100 µM (inactive) | > 100 µM (inactive) | > 100 µM (inactive) | > 100 µM (inactive) | > 100 µM (inactive) | > 100 µM (inactive) | 26.9 µM (inactive) |  | 
2 | CC1=NN(C(=O)c2ccc(Cl)cc2)C(=O)C1/N=N/c1ccc(S(=O)(=O)Nc2ncccn2)cc1 (centres undefined) | > 100 µM (inactive) | > 100 µM (inactive) | > 100 µM (inactive) |  | > 100 µM (inactive) | > 100 µM (inactive) | > 100 µM (inactive) | > 100 µM (inactive) | > 100 µM (inactive) | > 100 µM (inactive) | > 100 µM (inactive) | > 100 µM (inactive) | > 100 µM (inactive) | > 100 µM (inactive) | > 100 µM (inactive) | > 100 µM (inactive) | > 100 µM (inactive) | > 100 µM (inactive) | > 100 µM (inactive) | > 100 µM (inactive)
3 | C=Cc1cc2c(cc1O)CC[C@@H]1[C@@H]2CC[C@]2(C)[C@@H](O)CC[C@@H]12 | 7 µM (inactive) | 4.06 µM (inactive) | 3.82 µM (inactive) | 11.2 µM (inactive) | 11.2 µM (inactive) | 15.3 µM (inactive) | 4.66 µM (inactive) | 4.16 µM (inactive) | 7.23 µM (inactive) | 4.15 µM (inactive) | 4.39 µM (inactive) |  | 4.32 µM (inactive) | 21.3 µM (inactive) | 7.94 µM (inactive) |  |  | 3.9 µM (inactive) | 5.38 µM (inactive) | 5.78 µM (inactive)
4 | Cc1c(N2C(=O)CS(=O)(=O)C2c2cccc(Oc3ccccc3)c2)c(=O)n(-c2ccccc2)n1C (centres undefined) | 62.7 µM (inactive) | > 100 µM (inactive) | 84.9 µM (inactive) |  | 14.6 µM (inactive) | 34.4 µM (inactive) | 26.1 µM (inactive) | 59.3 µM (inactive) | > 100 µM (inactive) | > 100 µM (inactive) | 35.6 µM (inactive) | 40.5 µM (inactive) | > 100 µM (inactive) | > 100 µM (inactive) | 42.3 µM (inactive) | 26.8 µM (inactive) | 33.9 µM (inactive) | 20.5 µM (inactive) |  | 71.8 µM (inactive)
5 | O=C(c1ccc(Cl)cc1)N(C(=O)N1CCC(c2ccccc2)CC1)c1ccccc1 | 12.1 µM (inactive) | 45.2 µM (inactive) | 31 µM (inactive) |  |  | 31.3 µM (inactive) |  | 82 µM (inactive) | 57.8 µM (inactive) | 25.4 µM (inactive) | 15.4 µM (inactive) | 99.5 µM (inactive) | 92 µM (inactive) | 0.558 µM (active) | 54.1 µM (inactive) | 44.8 µM (inactive) |  | 21.8 µM (inactive) | 1.83 µM (inactive) | 
6 | C/C=C1\NC(=O)[C@H]2CSSCCC=C[C@H](CC(=O)N[C@H](C(C)C)C(=O)N2)OC(=O)[C@H](C(C)C)NC1=O | 0.00731 µM (active) | 9.98e-05 µM (active) | 0.000117 µM (active) | < 0.01 µM (active) | 0.00201 µM (active) | 0.000131 µM (active) |  | 0.000318 µM (active) | 0.00452 µM (active) |  | 6.65e-05 µM (active) | 0.000174 µM (active) | 0.000153 µM (active) |  | 0.00159 µM (active) | 0.000412 µM (active) | 9.79e-05 µM (active) | 0.000134 µM (active) | 0.000207 µM (active) | 0.000148 µM (active)
7 | O=c1cnn(CCOCP(=O)(O)O)c(=O)[nH]1 | > 100 µM (inactive) | > 100 µM (inactive) |  | > 100 µM (inactive) |  | > 100 µM (inactive) | > 100 µM (inactive) | > 100 µM (inactive) | > 100 µM (inactive) | > 100 µM (inactive) | > 100 µM (inactive) | > 100 µM (inactive) | > 100 µM (inactive) | > 100 µM (inactive) | > 100 µM (inactive) | > 100 µM (inactive) | > 100 µM (inactive) | > 100 µM (inactive) | > 100 µM (inactive) | > 100 µM (inactive)
8 | COc1ccc2[nH]c(Cl)c(/C=C3/C(=O)Nc4cc(C)c(OC)cc43)c2c1 | 12.2 µM (inactive) | 9.38 µM (inactive) | 1.98 µM (inactive) | 4.89 µM (inactive) |  | 4.23 µM (inactive) | 2.9 µM (inactive) | 5.75 µM (inactive) | 9.53 µM (inactive) | 11.4 µM (inactive) | 2.25 µM (inactive) | 7.43 µM (inactive) | 4.21 µM (inactive) | 6.93 µM (inactive) | 7.35 µM (inactive) | 2.66 µM (inactive) | 5.48 µM (inactive) | 4.32 µM (inactive) | 10.8 µM (inactive) | 5.26 µM (inactive)
9 | O=C1CSc2sc(=S)sc2S1 | > 100 µM (inactive) | > 100 µM (inactive) | > 24.5 µM (inactive) | > 80.2 µM (inactive) | > 59.3 µM (inactive) | > 29.2 µM (inactive) | > 61.7 µM (inactive) | > 100 µM (inactive) |  | > 100 µM (inactive) | > 100 µM (inactive) | > 70.1 µM (inactive) | > 100 µM (inactive) | > 100 µM (inactive) |  | > 100 µM (inactive) | > 100 µM (inactive) | > 100 µM (inactive) | > 100 µM (inactive) | 50.8 µM (inactive)
10 | COc1c(Cl)ccc(Cl)c1C(=O)NNC(=O)c1c(Cl)c(Cl)c(Cl)c(Cl)c1-c1nc2cc(C(=O)c3ccccc3)ccc2[nH]1 | 60.4 µM (inactive) | 84.7 µM (inactive) | 34.9 µM (inactive) |  | 44.9 µM (inactive) | 62.1 µM (inactive) | 33.1 µM (inactive) | 34.3 µM (inactive) | 37.5 µM (inactive) | 76.6 µM (inactive) | 25.2 µM (inactive) | 70.8 µM (inactive) | > 100 µM (inactive) | > 100 µM (inactive) | 95.3 µM (inactive) | 30.5 µM (inactive) | 82 µM (inactive) | 20.6 µM (inactive) | > 100 µM (inactive) | 56 µM (inactive)
11 | Cc1cc(C)c2c(n1)S(=O)(=O)N(CCCN1CCN(c3cccc(C(F)(F)F)c3)CC1)C(C(=O)c1ccccc1)=C2O | 5.42 µM (inactive) | 9.64 µM (inactive) | 4.11 µM (inactive) |  | 4.66 µM (inactive) | 5.22 µM (inactive) | 4 µM (inactive) | 8.51 µM (inactive) | 9.04 µM (inactive) | 5.66 µM (inactive) | 2.93 µM (inactive) | 4.55 µM (inactive) | 4.13 µM (inactive) | 7.36 µM (inactive) | 2.79 µM (inactive) | 4.18 µM (inactive) | 8.38 µM (inactive) | 2.67 µM (inactive) | 3.48 µM (inactive) | 4.55 µM (inactive)
12 | CCCO[C@@H]1[C@@H](OC(C)=O)[C@@H](OC(C)=O)C(C)(C)/C=C/[C@H](C)C(=O)[C@@]2(OC(C)=O)C[C@@](C)(OC(C)=O)[C@H](OC(C)=O)[C@@H]2[C@H]2OC(=O)CC[C@@]12OC(=O)c1ccccc1 | > 25 µM (inactive) |  | 10.4 µM (inactive) | 18.5 µM (inactive) | > 25 µM (inactive) | 5.18 µM (inactive) | 0.774 µM (active) | > 25 µM (inactive) | > 25 µM (inactive) | > 25 µM (inactive) | 19.1 µM (inactive) | > 25 µM (inactive) | 23.6 µM (inactive) | > 25 µM (inactive) | 17.7 µM (inactive) | > 25 µM (inactive) | > 25 µM (inactive) | 5.13 µM (inactive) | > 25 µM (inactive) | 
13 | CC(=O)OCC1OC(n2cc(F)c(=O)[nH]c2=O)C(N)C(OC(C)=O)C1OC(C)=O (centres undefined) | > 100 µM (inactive) |  | > 100 µM (inactive) | > 100 µM (inactive) | > 100 µM (inactive) | > 100 µM (inactive) | > 100 µM (inactive) | > 100 µM (inactive) |  | > 100 µM (inactive) | > 100 µM (inactive) | > 100 µM (inactive) | > 100 µM (inactive) | > 100 µM (inactive) | > 100 µM (inactive) | > 100 µM (inactive) | > 100 µM (inactive) | > 100 µM (inactive) | > 100 µM (inactive) | > 100 µM (inactive)
14 | CO/N=C1/c2sccc2[C@H](NC(=O)CNC(=O)OC(C)(C)C)[C@@H]1O | > 100 µM (inactive) | > 100 µM (inactive) | > 100 µM (inactive) | > 100 µM (inactive) | > 100 µM (inactive) | > 100 µM (inactive) |  | > 100 µM (inactive) |  | > 100 µM (inactive) | > 100 µM (inactive) | > 100 µM (inactive) | > 100 µM (inactive) | > 100 µM (inactive) | > 100 µM (inactive) | > 100 µM (inactive) | > 100 µM (inactive) | > 100 µM (inactive) | > 100 µM (inactive) | > 100 µM (inactive)
15 | C1#Cc2ccccc2OCCOc2ccccc2C#Cc2ccccc2OCCOc2ccccc21 | 46.7 µM (inactive) | 70.8 µM (inactive) | 21.6 µM (inactive) |  | 10.9 µM (inactive) | 66.5 µM (inactive) | 20.7 µM (inactive) | 19.7 µM (inactive) | 15 µM (inactive) | > 100 µM (inactive) | 18.2 µM (inactive) | 30.7 µM (inactive) | 34 µM (inactive) | 24 µM (inactive) | 17.7 µM (inactive) | 14 µM (inactive) | 8.77 µM (inactive) | 16.2 µM (inactive) |  | 25.2 µM (inactive)
